According to publication PMC4790384, “Position-Dependent Influence of the Three Trp Residues on the Membrane Activity of the Antimicrobial Peptide, Tritrpticin” (Antibiotics, 2014):
Converted amounts (≈) assume the structure as drawn. Ends that are not written are not given here.

Each compound was assayed on E. coli ATCC 25922.
Assay type: cell-based, Escherichia coli
Description: The minimum inhibitory concentration (MIC) of Tritrp1 and its Trp-substituted analogs against E. coli ATCC 25922 was measured by the standard broth microdilution method. Bacteria (5 × 10^5 CFU/mL) were incubated overnight at 37 °C in Mueller-Hinton broth (MHB) and in the presence of peptides diluted in a two-fold concentration series ranging from 0.25–128 µM in a 96-well polypropylene plate. The reported MIC values correspond to the minimum peptide concentration where bacterial growth was not observed. After overnight incubation, 10 µL from the first three wells without bacterial growth for each peptide in the MIC plate were diluted 1:10^6 in MHB, and 100 µL of this dilution was plated in MHB-agar. After incubation overnight at 37 °C, the minimum bactericidal concentration (MBC) was reported as the minimum peptide concentration where no colony formation was detected.
VRRFPAAAPFLRR-NH2 [A-Tritrp] was tested, and the MBC was over 128 µM and the MIC was over 128 µM. In the case of VRRFPAWAPFLRR-NH2 [Peptide W68A], the MBC is reported as 64 to 128 µM and the MIC is reported as 64 to 128 µM. Compound VRRFPYWWPFLRR-NH2 [Peptide W6Y] has an MBC of 16 µM and an MIC of 16 µM. VRRFPWWAPFLRR-NH2 [Peptide W8A] gave an MBC of 8 µM and an MIC of 8 µM. With VRRFPYYWPFLRR-NH2 [Peptide W67Y] the MBC was 32 µM and the MIC was 32 µM. VRRFPAAWPFLRR-NH2 [Peptide W67A] was tested, and the MBC was 64 to 128 µM and the MIC was 64 to 128 µM. VRRFPWYYPFLRR-NH2 [Peptide W78Y] was tested, and the MBC was 16 µM and the MIC was 16 µM. For VRRFPYYYPFLRR-NH2 [Y-Tritrp], the MBC was 16 to 32 µM. Compound VRRFPWAWPFLRR-NH2 [Peptide W7A] has an MBC of 16 µM and an MIC of 16 µM. VRRFPWAAPFLRR-NH2 [Peptide W78A] gave an MBC of 64 to 128 µM and an MIC of 64 to 128 µM. For VRRFPAWWPFLRR-NH2 [Peptide W6A], the MBC was 32 to 64 µM and the MIC was 32 to 64 µM. In the case of VRRFPWYWPFLRR-NH2 [Peptide W7Y], the MBC is reported as 8 µM and the MIC is reported as 8 µM. VRRFPWWYPFLRR-NH2 [Peptide W8Y] gave an MBC of 4 µM and an MIC of 4 µM. In the case of VRRFPYWYPFLRR-NH2 [Peptide W68Y], the MBC is reported as 16 µM and the MIC is reported as 16 µM. `CC(C)C[C@H](NC(=O)[C@H](Cc1ccccc1)NC(=O)[C@@H]1CCCN1C(=O)[C@H](Cc1c[nH]c2ccccc12)NC(=O)[C@H](Cc1c[nH]c2ccccc12)NC(=O)[C@H](Cc1c[nH]c2ccccc12)NC(=O)[C@@H]1CCCN1C(=O)[C@H](Cc1ccccc1)NC(=O)[C@H](CCCNC(=N)N)NC(=O)[C@H](CCCNC(=N)N)NC(=O)[C@@H](N)C(C)C)C(=O)N[C@@H](CCCNC(=N)N)C(=O)N[C@@H](CCCNC(=N)N)C(N)=O` [Tritrp1, reference compound] was tested, and the MBC was 4 µM (≈ 7.61 µg/mL) and the MIC was 4 µM (≈ 7.61 µg/mL).
